Results on 15 compounds are retold here after patent US20070010671A1, “Novel quinazoline derivatives and methods of treatment related to the use thereof” (priority 2003, published 2007).

Molecules are shown by their SMILES.

In this experiment the target is MCH receptor (Homo sapiens, UniProt Q99705). Briefly: High throughput functional screening FLIPR/FDSS6000: inhibition of MCH-evoked intracellular Ca2+ changes. The note with it: class by percent of control at 10^-7 M or IC50. The experiment is classed as cell-based. The essentials: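 Constitutively active non-endogenous MCH-R cells; Fluo4-AM 4 μM, 2.5 mM probenecid, 1 hr, 37° C; cpd 3 min, 37° C; MCH 50 nM (antagonist mode); kinetic Ca2+ read Ex488/Em530, 290 s.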

With `CN(C)c1nc(N[C@H]2CC[C@@H](CNC(=S)Nc3ccc(C#N)cc3)CC2)nc2ccccc12` [compound 584], the class is reported as 3 (Class 3: The value of percent of control at 10^−7 M was more than 60% or the value of IC50 was more than 200 nM.).

As to `CN(C)c1nc(N[C@H]2CC[C@@H](CNC(=S)NC3CCCCC3)CC2)nc2ccccc12` [compound 585], the class was 3 (Class 3: The value of percent of control at 10^−7 M was more than 60% or the value of IC50 was more than 200 nM.).

As to `CN(C)c1nc(N[C@H]2CC[C@@H](CNC(=S)NC3CCCC3)CC2)nc2ccccc12` [compound 586], the class is reported as 3 (Class 3: The value of percent of control at 10^−7 M was more than 60% or the value of IC50 was more than 200 nM.). Turning to `CN(C)c1nc(N[C@H]2CC[C@@H](CNC(=S)Nc3cccc(Cl)c3)CC2)nc2ccccc12` [compound 587], the class is reported as 3 (Class 3: The value of percent of control at 10^−7 M was more than 60% or the value of IC50 was more than 200 nM.). As for `CN(C)c1nc(N[C@H]2CC[C@@H](CNC(=S)Nc3ccc(Cl)cc3)CC2)nc2ccccc12` [compound 588], the figure is 3 (Class 3: The value of percent of control at 10^−7 M was more than 60% or the value of IC50 was more than 200 nM.); as for `CN(C)c1nc(N[C@H]2CC[C@@H](CNC(=S)Nc3ccc(Cl)cc3Cl)CC2)nc2ccccc12` [compound 589], 3 (Class 3: The value of percent of control at 10^−7 M was more than 60% or the value of IC50 was more than 200 nM.); as for `COc1ccc(NC(=S)NC[C@H]2CC[C@@H](Nc3nc(N(C)C)c4ccccc4n3)CC2)c(OC)c1` [compound 590], 3 (Class 3: The value of percent of control at 10^−7 M was more than 60% or the value of IC50 was more than 200 nM.). Regarding `CN(C)c1nc(N[C@H]2CC[C@@H](CNC(=S)Nc3cc(F)ccc3F)CC2)nc2ccccc12` [compound 591], the class is 3 (Class 3: The value of percent of control at 10^−7 M was more than 60% or the value of IC50 was more than 200 nM.). As for `CN(C)c1nc(N[C@H]2CC[C@@H](CNC(=S)Nc3cc(Cl)ccc3Cl)CC2)nc2ccccc12` [compound 592], the figure is 3 (Class 3: The value of percent of control at 10^−7 M was more than 60% or the value of IC50 was more than 200 nM.); as for `Cc1cccc(C)c1NC(=S)NC[C@H]1CC[C@@H](Nc2nc(N(C)C)c3ccccc3n2)CC1` [compound 593, N-[(cis-4-{[4-(dimethylamino)quinazolin-2-yl]amino}cyclohexyl)methyl]-N′-(2,6-dimethylphenyl)thiourea], 2 (Class 2: The value of percent of control at 10^−7 M was from 40% to 60% or the value of IC50 was from 50 nM to 200 nM.); as for `CN(C)c1nc(N[C@H]2CC[C@@H](CNC(=S)Nc3ccc(Cl)c(Cl)c3)CC2)nc2ccccc12` [compound 594], 3 (Class 3: The value of percent of control at 10^−7 M was more than 60% or the value of IC50 was more than 200 nM.). As for `CN(C)c1nc(N[C@H]2CC[C@@H](CNC(=S)Nc3c(Cl)cccc3Cl)CC2)nc2ccccc12` [compound 595], the figure is 2 (Class 2: The value of percent of control at 10^−7 M was from 40% to 60% or the value of IC50 was from 50 nM to 200 nM.); as for `CCOc1ccc(NC(=S)NC[C@H]2CC[C@@H](Nc3nc(N(C)C)c4ccccc4n3)CC2)cc1` [compound 596], 3 (Class 3: The value of percent of control at 10^−7 M was more than 60% or the value of IC50 was more than 200 nM.). As for `CCc1cccc(C(C)C)c1NC(=S)NC[C@H]1CC[C@@H](Nc2nc(N(C)C)c3ccccc3n2)CC1` [compound 597], the figure is 2 (Class 2: The value of percent of control at 10^−7 M was from 40% to 60% or the value of IC50 was from 50 nM to 200 nM.); as for `CN(C)c1nc(N[C@H]2CC[C@@H](CNC(=S)NCc3ccco3)CC2)nc2ccccc12` [compound 598], 3 (Class 3: The value of percent of control at 10^−7 M was more than 60% or the value of IC50 was more than 200 nM.).
